Experimental data published in paper PMC5471438, “Linaclotide activates guanylate cyclase‐C/cGMP/protein kinase‐II‐dependent trafficking of CFTR in the intestine” (Physiological Reports, 2017).
pEC50: −log10 of the molar value. Entries after “also recorded” stand apart in the source; their conditions may differ.

How the values were obtained:
CFTR [1] = assay: Surface biotinylation of CFTR in rat jejunum enterocytes after in vivo loop treatment; conditions: linaclotide 5 μg/mL/loop, 30 min in vivo, vs saline and untreated, mean ± SEM (n = 4)
CFTR [2] = assay: Confocal immunofluorescence of CFTR in rat intestine; type: in vivo; conditions: linaclotide 5 μg, 30 min
Protocol: All animal studies were approved by the Institutional Animal Care and Use Committee of Yale University School of Medicine. Briefly, male Sprague–Dawley rats (200–250 g, Charles River Laboratories) were fasted overnight with access to drinking water ad libitum. Anesthesia was performed with Inactin® (Thiobutabarbital sodium salt hydrate, 120 mg/kg/i.p.). The jejunal, ileal, and proximal colonic loops (5 cm length) were prepared using sutures. Loops were instilled either with normal saline (pH7.4, 37°C) (1 mL/loop) or linaclotide (5 μg/mL/loop) for 30 min. At the end of the study, animals were euthanized with Inactin (200 mg/kg/i.p.).
After completion of treatment either with normal saline or linaclotide for 30 min, intestinal segments were immediately removed and briefly rinsed with ice‐cold PBS. Tissues were cut into ~2‐mm‐thick rings, fixed in 2% paraformaldehyde in PBS, pH 7.4 for 1 h at room temperature, rinsed with PBS and cryoprotected in 30% sucrose overnight. Multiple tissue samples were processed under identical conditions by the utilization of tissue arrays as previously described (Jakab et al. 2011). […] Immunolabeled sections were stored at 4°C and examined on Zeiss LSM 710 DUO laser scanning confocal microscope outfitted with a Mai‐Tai laser and electronics capable of spectrally separating fluorescence emission profiles. […]

[3] = system: rat proximal colonic mucosa; assay: Transepithelial short circuit current (Isc) across rat proximal colonic mucosa, Ussing chamber; set-up: species or system rat (Sprague–Dawley); conditions: rat proximal colonic mucosa, linaclotide 6 nmol/L and 100 nmol/L, apical; mean ± SEM (n = 4)
T84 cells = assay: cGMP synthesis in T84 cells; type: cell-based, human
C2BBe cells = assay: cGMP synthesis in C2BBe cells; type: cell-based, human
cGKII (PKGII) [4] = assay: VASP Ser239 phosphorylation in C2BBe cells, Western blot; type: cell-based, human; conditions: linaclotide 1 and 3.27 μmol/L, 30 min, 8Br‐cGMP 0.2 and 1 mmol/L positive control
Protocol: (§1) C2BBe or T84 cells were homogenized in TGH lysis buffer [25 mmol/L HEPES, 10% (vol/vol) glycerol, 1% (vol/vol) Triton‐ × 100, pH 7.4] containing protease inhibitors (10 nmol/L iodoacetamide, 1 mmol/L phenylmethylsulfonyl fluoride (PMSF), 2 μg/mL leupeptin) for 30 min on ice. Homogenates were solubilized, subject to centrifugation at 13,200 g for 15 min at 4°C, and cleared supernatants were recovered. Protein concentration of the supernatant was determined with Coomassie Protein Assay Reagent (Pierce) and samples prepared and analyzed as described (Kravtsov et al. 2016). Quantification of surface‐labeled proteins was performed with Quantity One image analysis software.
(§2) VASP was originally characterized as a substrate for both PKG (cGMP‐dependent kinase) and PKA (cAMP‐dependent kinase). […] To determine linaclotide‐induced activation of cGKII, we determined the phosphorylation of VASP^Ser239 30 min following treatment either with vehicle or linaclotide (1 μmol/L and 3.27 μmol/L; the 3.27 μmol/L concentration is equivalent to the 5 μg dose of linaclotide that was used in vivo in the rat jejunum loop). The membrane permeant cGMP analog, 8 Br‐cGMP (0.2 mmol/L, 1 mmol/L), was used as a positive control.

cGKII (PKGII) [5] = assay: VASP Ser239 phosphorylation in T84 cells, Western blot; type: cell-based, human; conditions: linaclotide 1 and 3.27 μmol/L, 30 min, 8Br‐cGMP 0.2 and 1 mmol/L positive control
Protocol: as §1, §2

GC‐C [6] = assay: cGMP in human intestinal mucosa tissues and supernatants; conditions: human jejunum, ileum, ascending colon mucosa, linaclotide 1 μmol/L, 30 and 60 min, 37°C, IBMX 1 mmol/L, EIA, mean ± SD (n = 4)
CFTR [7] = assay: Surface biotinylation of CFTR in C2BBe cells; type: cell-based, human; conditions: linaclotide 1 μmol/L and 3.27 μmol/L, 30 min
CFTR [8] = assay: Surface biotinylation of CFTR in T84 cells; type: cell-based, human; conditions: linaclotide 1 μmol/L and 3.27 μmol/L, 30 min
[9] = system: rat proximal colonic mucosa; set-up: method as in 2 sources, one per row (each row's own in cited_ref): ref Tchernychev et al. 2015 ||| ref Vaandrager et al. 1997; conditions: rat proximal colon / colonic epithelium; ref Tchernychev et al. 2015; read-out: EC50 for transepithelial ion current; cited from earlier work
[10] = via extracellular cGMP; ref Castro et al. 2013; Silos‐Santiago et al. 2013; Hannig et al. 2014; cited from earlier work
Excerpt: (§3) While the increase in intracellular cGMP following ligand activation of GC‐C is well established, the efflux of cGMP from enterocytes is not well studied.

Caco‐2 cell line = conditions: human colonic Caco‐2 cell line; ref Castro et al. 2013; Silos‐Santiago et al. 2013; cited from earlier work
Excerpt: as §3

mouse colonic mucosa = conditions: apical and basolateral membrane, ref Silos‐Santiago et al. 2013, Tchernychev et al. 2015; cited from earlier work
Excerpt: as §3

rat colonic mucosa = conditions: apical and basolateral membrane, ref Silos‐Santiago et al. 2013, Tchernychev et al. 2015; cited from earlier work
Excerpt: as §3

GC‐C [11] = conditions: ref Bryant et al. 2010; Busby et al. 2010; cited from earlier work
Excerpt: The synthetic GC‐C agonist peptide, linaclotide, is an FDA‐approved drug for adult patients with Irritable Bowel Syndrome with Constipation (IBS‐C) and Chronic Idiopathic Constipation (CIC) (Bryant et al. 2010; Busby et al. 2010). IBS‐C is a highly prevalent, chronic functional gastrointestinal disorder with a global prevalence estimated to range from 5% to 20% (Mayer 2008; Quigley et al. 2012).

[12] = Stability of linaclotide in human mucosa tissue supernatants by LC-MS; conditions: human intestinal mucosa supernatants, 1 μmol/L, 30 and 60 min incubation, 37°C
[13] = IBMX 1 mmol/L 10 min, linaclotide 0.001–10 μmol/L 30 min, 37°C, pH 7, cGMP in supernatants by LC/MS/MS, n = 4
[14] = linaclotide 0.001–10 μmol/L, 30 min, IBMX 1 mmol/L

linaclotide
surface CFTR (surface biotinylation, Western blot) (CFTR [1]): highest levels of surface CFTR; also recorded: robust increase in surface CFTR when compared to the untreated intestine
CFTR localization in brush border (confocal) (CFTR [2]): accumulation of CFTR in the brush border
linaclotide-induced transepithelial ion current (Isc) [3]: induced a transepithelial ion current at both concentrations
EC80 for cGMP synthesis (approximate) (T84 cells): ~1000 nM
EC100 for cGMP synthesis (approximate) (T84 cells): ~3 µmol/L
pEC50 (T84 cells; [13]): 6.11
cGMP synthesis (T84 cells; [14]): concentration dependently stimulated cGMP synthesis
EC80 for cGMP synthesis (approximate) (C2BBe cells): ~1000 nM
EC100 for cGMP synthesis (approximate) (C2BBe cells): ~3 µmol/L
pEC50 (C2BBe cells; [13]): 6.28
cGMP synthesis (C2BBe cells; [14]): concentration dependently stimulated cGMP synthesis
phosphorylation of VASP Ser239 (cGKII (PKGII) [4]): more robust phosphorylation of VASP^Ser239 compared to 8Br‐cGMP; also recorded: higher levels of VASP^Ser239 phosphorylation compared to the lower concentration
phosphorylation of VASP Ser239 (cGKII (PKGII) [4]; listed as Linaclotide): more strongly enhanced phosphorylation of VASP^Ser239 compared to the cGMP analog 8‐Br‐cGMP
phosphorylation of VASP Ser239 (cGKII (PKGII) [5]): more robust phosphorylation of VASP^Ser239 compared to 8Br‐cGMP; also recorded: higher levels of VASP^Ser239 phosphorylation compared to the lower concentration
phosphorylation of VASP Ser239 (cGKII (PKGII) [5]; listed as Linaclotide): more strongly enhanced phosphorylation of VASP^Ser239 compared to the cGMP analog 8‐Br‐cGMP
cGMP level in supernatant (extracellular) (GC‐C [6]): greater after 30 min, compared to levels measured after 60 min
cGMP level in tissue (intracellular) (GC‐C [6]): greater after 30 min, compared to levels measured after 60 min
cGMP level in supernatant (extracellular) (GC‐C [6]; listed as Linaclotide): increased levels of both intracellular and extracellular cGMP
cGMP level in tissue (intracellular) (GC‐C [6]; listed as Linaclotide): increased levels of both intracellular and extracellular cGMP
CFTR recruitment to cell surface (CFTR [7]): increased cell surface CFTR levels; also recorded: robust recruitment of CFTR to the apical surface; also recorded: robust increase in surface levels of CFTR compared to untreated control cells; also recorded: higher surface CFTR levels in C2BBe cells compared to T84 cells
CFTR recruitment to cell surface (CFTR [8]): increased cell surface CFTR levels; also recorded: robust recruitment of CFTR to the apical surface; also recorded: robust increase in surface levels of CFTR compared to untreated control cells
pEC50 [9]: 8.04
antinociceptive effect [10]: antinociceptive effects in several models of colonic hypersensitivity
cGMP efflux (Caco‐2 cell line): induce cGMP efflux
cGMP efflux (mouse colonic mucosa): induce cGMP efflux
cGMP efflux (rat colonic mucosa): induce cGMP efflux
fluid secretion (GC‐C [11]): increased fluid secretion
intestinal transit (GC‐C [11]): accelerated intestinal transit
stability of linaclotide in tissue supernatants [12]: stable under these conditions
